Results on five compounds are retold here after patent US4578245A, “Multilayer analytical element” (Fuji Photo Film Co., Ltd., priority 1982, dated 1986).

The data set can be described thus: Relative Sensitivity in Aqueous Solution System (color formation with H2O2, peroxidase and 1,7-dihydroxynaphthalene). To be noted: relative steepness of calibration curve; reference (C1) = 1.0; pH 6.0; 37° C., 10 min; 515 nm. The procedure:
The following color-forming composition solutions were prepared using, as coupler, 1,7-dihydroxynaphthalene and, as chromogen, the compounds (1), (6), (7), (18), (C1) and (C2), respectively.
1,7-Dihydroxynaphthalene: 50 μmol
Phosphate buffer: added to adjust to pH 6.0
The color-forming solution having the above composition (5 ml.) was incubated at 37° C. for 3 min., and subsequently 50 μl. of aqueous H2 O2 solution (four levels from 1 mmol to 6 mmol and blank, respectively) was dropped into the incubated color-forming solution. The solution was further incubated at 37° C. for 10 min., and immediately subjected to transmissive spectroscopy at the wavelength of 515 nm for measurement of optical density of the formed color. The relationships between the H2 O2 concentrations and the measured optical density values on the formed color (the value was calculated by subtracting an optical density of the color formed in the blank solution from an optical density of the color formed in the aqueous H2 O2 incorporated solution) were plotted on an orthgonal axes graph to determine the steepness of slope of the calibration curve. The relative sensitivity of each compound is set forth in Table 6 in terms of a relative steepness value based on the reference steepness obtained in the measurement on the solution using the compound (C1). In Table 6, the reference steepness is given as 1.0.
Take `Cc1c(N)c(=O)n(-c2c(Cl)cc(Cl)cc2Cl)n1C` [Compound (6)]: the “Relative Sensitivity (aq. sol.)” value came out at 0.70.
In the case of `Cn1c(-c2ccccc2)c(N)c(=O)n1C` [(C2), reference compound] it was 0.77; in that of `Cn1c(-c2ccccc2)c(N)c(=O)n1-c1ccccc1` [(18)], 0.82.
In the case of `Cc1c(N)c(=O)n(-c2cccc(Cl)c2)n1C` [(1)] it was 0.99.
Turning to `Cc1c(N)c(=O)n(-c2ccccc2)n1C` [Compound (C1), 4-amino-2,3-dimethyl-1-phenyl-3-pyrazolin-5-one, reference compound], the “Relative Sensitivity (aq. sol.)” value turned out to be 1.0.
